Assay results reported in patent publication US12629322B2, “Antiseptic compositions” (RHT LIMITED, priority 2020, dated 2026).

How the values were obtained:
[1] = system: PolySeed BOD Seed Inoculum (blend of broad spectrum bacteria); experiment: Durability test of bacteria inhibition (repeated spiking of bacteria on agar plate, swab viable count); assay type: cell-based; settings: bacteria spiked every 60 minutes
Protocol: To evaluate the durability of bacteria inhibition of the exemplary compositions, durability test by regularly spiking a fixed amount of bacteria into the sample is performed and the procedures are incorporated herein by reference.
• Group A: Agar plate with 0.5 mL distilled water; • Group B: Agar plate with 0.5 mL 75% isopropyl alcohol (IPA); • Group C: Agar plate with 0.5 g of tested exemplary composition.
Bacteria strain used: PolySeed® BOD Seed Inoculum Capsules (1 capsule dissolved into 500 mL Distilled Water) (Interlab), which contains a blend of broad spectrum bacteria designed specifically as a seed inoculum for the Biochemical Oxygen Demand (BOD 5) test as conducted in accordance to Standard Methods of the Examination of Water and Wastewater. PolySeed® is an EPA approved BOD 5 seed inoculum that has been used to seed both municipal and industrial wastes for almost 20 years. • Agar: Trypticase Soy Agar (TSA) • Incubation condition: 48 hours at 30±1° C. • Testing Procedure
The above three sample group agar plates are used as the sample matrices of different initial situation for spiking 0.5 ml bacteria solution for every 60 minutes, i.e.: there was an on-going process of spiking bacteria at time 0, 60, 120, 180, 240, 300 minutes;
A swab testing is carried out every 30 minutes from matrix samples of each group to test for the viable count of bacteria at the time interval.
Example of sample with sequence in time: • AM: 0.5 ml bacteria solution is added at T0−10 min; • Sample A1: To swab from AM at T0; Sample A2: To swab from AM at T1; • AM: 0.5 ml bacteria solution is added at T2−10 min; • Sample A3: To swab from AM at T2; Sample A4: To swab from AM at T3; • AM: 0.5 ml bacteria solution is added at T4−10 min; and so forth. Table 2 summarized the testing schedule for durability test.

[2] = system: PolySeed BOD Seed Inoculum (blend of broad spectrum bacteria); experiment: Volatility test (duration of bacteria inhibition on agar plate, swab viable count); assay type: cell-based
Protocol: To study the duration on ability of bacteria inhibition of an exemplary composition, a volatility test is performed.
• Group A: Agar plate with 0.5 mL distilled water; • Group B: Agar plate with 0.5 mL 75% isopropyl alcohol (IPA); • Group C: Agar plate with 0.5 g of tested exemplary composition. • Bacteria strain used: PolySeed® BOD Seed Inoculum Capsules (1 capsule dissolved into 500 mL Distilled Water) (Interlab) • Agar: Trypticase Soy Agar (TSA) • Incubation condition: 48 hours at 30±1° C. Testing Procedure
0.5 mL bacteria solution is add into the agar plate groups A, B and C at the time interval of Tx. as defined in Table 1.3.
After T10, bacteria solution is spiked to all the agar plates except agar blank.
Swab test is carried out to test for the viable count of bacteria at the time interval Tx.

75% isopropyl alcohol [75% IPA]
Viable count of bacteria, durability test ([1]; T0 (0 min)): 8 CFU/plate
Viable count of bacteria, durability test ([1]; T1 (30 min)): 28 CFU/plate
Viable count of bacteria, durability test ([1]; T2 (60 min)): 53 CFU/plate
Viable count of bacteria, durability test ([1]; T3 (90 min)): 89 CFU/plate
Viable count of bacteria, durability test ([1]; T4 (120 min)): 254 CFU/plate
Viable count of bacteria, durability test ([1]; T5 (150 min)): 346 CFU/plate
Viable count of bacteria, volatility test ([2]; T0 (0 min)): 54 CFU/plate
Viable count of bacteria, volatility test ([2]; T1 (30 min)): 62 CFU/plate
Viable count of bacteria, volatility test ([2]; T2 (60 min)): 50 CFU/plate
Viable count of bacteria, volatility test ([2]; T3 (90 min)): 45 CFU/plate
Viable count of bacteria, volatility test ([2]; T4 (120 min)): 49 CFU/plate
Viable count of bacteria, volatility test ([2]; T5 (150 min)): 55 CFU/plate
Viable count of bacteria, volatility test ([2]; T6 (180 min)): 43 CFU/plate
Viable count of bacteria, volatility test ([2]; T7 (210 min)): 37 CFU/plate
Viable count of bacteria, volatility test ([2]; T8 (240 min)): 44 CFU/plate
Viable count of bacteria, volatility test ([2]; T9 (270 min)): 49 CFU/plate
Viable count of bacteria, volatility test ([2]; T10 (300 min)): 0 CFU/plate
